Measured values reported in patent US12637473B2, “MDM2 protein degraders” (THE REGENTS OF THE UNIVERSITY OF MICHIGAN, priority 2016, dated 2026).
Entries after “also recorded” stand apart in the source; their conditions may differ.

Legend:
Assay type in all cases: cell-based
[1] = tested on: RS4; 11 cells with stable shRNA knockdown of p53; assay: Cell growth inhibition by WST assay, p53 knockdown cells; design: LogIC50: unit not given here; conditions: RS4;11 sh p53, 4 days
Protocol: (§1) RS4; 11 cells with stable shRNA knockdown of p53 or those transfected shRNA control vector were treated with Cpd. A, Cpd. B, Cpd. No. 14, Cpd. No. 21, Cpd. No. 15, and Cpd. No. 22 for 4 days, with a cell concentration of ˜15,000/well. Cell growth inhibition was determined by WST assay. See Table 7 (p53) and Table 8 (control). Significant increases in IC50 of the Compounds of the Disclosure in the p53 knockdown RS4; 11 cells were observed compared with that in the sh control cells. […] The p53 knockdown efficiency was determined by western blot for p53 protein levels with or without treatment of Cpd. A (1 μM) for 2 hours.

[2] = molecular target: T1, MDM2 (Homo sapiens, UniProt Q00987); assay: MDM2 degradation and p53 activation, western blotting of cell lysates; design: endogenous in cells
Protocol: MV-4-11 cells were treated with Cpd. A, Cpd. B, Cpd. No. 15, and Cpd. No. 22 for 2 hours, then harvested and lysed. The cell lysates were subjected to western blotting analysis. […] No. 15 and Cpd. No. 22 as compared to Cpd. A, indicating MDM2 degradation.

[3] = molecular target: T1, MDM2; assay: MDM2 degradation and p53 activation after pre-incubation with Cpd. C, Western blot; design: endogenous in cells; host or cells: RS4;11
Protocol: RS4; 11 cells were pre-incubated with 30 μM Cpd. C to compete for the binding of phthalimide to CRBN, or DMSO, for 2 hours before adding Cpd. A, Cpd. No. 14, Cpd. No. 15, and Cpd. No. 22. In the Western blot RS4; 11 cells were then co-treated with the indicated compounds at the indicated concentrations after pre-incubation. […] No. 14, Cpd. No. 15, and Cpd.

[4] = tested on: p53 target genes: p21, PUMA and BAX; assay: Activation of p53 downstream target genes, quantitative real-time PCR; conditions: RS4, 11 cells, 10 nM
Protocol: RS4; 11 cells were treated with Cpd. A (0.3 μM), Cpd. No. 15 (10 nM), and Cpd. No. 22 (10 nM) for 3, 6, or 12 hours, and then harvested and washed. Cellular mRNA samples were extracted from the cells and then subjected to Reverse Transcription and quantitative real-time PCR for the analysis of the mRNA levels of three representative p53 target genes: p21, that induces cell cycle arrest, and PUMA and BAX that leads to apoptosis. […] A, Cpd. No. 15, and Cpd. No. 22.

[5] = molecular target: T1, MDM2; assay: MDM2 degradation and p53 activation, western blotting of cell lysates; design: endogenous in cells; host or cells: RS4;11; conditions: RS4
Protocol: RS4; 11 cells were treated with Cpd. A, Cpd. B, Cpd. No. 15, and Cpd. No. 22 for 2 hours, then harvested and lysed. The cell lysates were subjected to western blotting analysis. […] No. 15 and Cpd. No. 22 as compared to Cpd. A, indicating MDM2 degradation. The structure of Cpd.

[6] = tested on: RS4; 11 cells transfected shRNA control vector; assay: Cell growth inhibition by WST assay, shRNA control cells; design: LogIC50: unit not given here; conditions: RS4;11 sh Control, 4 days
Protocol: as §1

[7] = molecular target: T1, MDM2; assay: MDM2 degradation with or without proteasome inhibitor MG-132, western blotting; design: endogenous in cells; host or cells: RS4;11; conditions: FIG. 6
Protocol: RS4; 11 cells were pre-incubated with the proteasome inhibitor MG-132 (20 μM) or without any pre-incubation for 2 hours. Next, the cells were treated with Cpd. A (0.3 μM), Cpd. No. 14 (0.03 μM), Cpd. No. 15 (0.01 μM), and Cpd. No. 22 (0.01 μM) for 2 hours, then harvested and lysed. The cell lysates were subject to western blotting analysis.

[8] = tested on: RS4; 11 cell line; assay: CellTiter-Glo Luminescent Cell Viability Assay, cell growth inhibition; conditions: Homo sapiens, 96 h, 4 days
In short: (§2)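 Cells plated at 2,000/well with serially diluted compounds, incubated 4 days at 37° C, 5% CO2. Viability read by CellTiter-Glo luminescence after 10-20 min at room temperature; IC50 from dose-response fit.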

[9] = tested on: MV4-11 cell line; assay: as above; conditions: Homo sapiens, 96 h, 4 days
In short: as §2

[10] = tested on: RS4; 11 cells; assay: Cell growth inhibition by WST assay with Cpd. C co-treatment (CRBN competition); design: LogIC50: unit not given here; conditions: for HillSlope / IC50 / LogIC50: 4 days
Protocol: RS4; 11 cells were pre-incubated with different concentrations of Cpd. C to compete for the binding of phthalimide to CRBN, or DMSO, for 2 hours before adding Cpd. A, Cpd. No. 14, Cpd. No. 15, and Cpd. No. 22. The cells were then co-treated with 10, 20, or 30 μM Cpd. C and increasing concentrations of Cpd. A, Cpd. No. 14, Cpd. No. 15, and Cpd. No. 22 for 4 days, with a starting cell concentration of ˜15,000/well. Cell growth inhibition was determined by the WST assay. […] No. 14, Cpd. No. 15, and Cpd. No. 22 with co-treatment of Cpd. C. The structure of Cpd.

[11] = RS4, 11 cells, pre-incubated with 30 μM Cpd. C for 2 hours

T1 sequence (Q00987 whole entry): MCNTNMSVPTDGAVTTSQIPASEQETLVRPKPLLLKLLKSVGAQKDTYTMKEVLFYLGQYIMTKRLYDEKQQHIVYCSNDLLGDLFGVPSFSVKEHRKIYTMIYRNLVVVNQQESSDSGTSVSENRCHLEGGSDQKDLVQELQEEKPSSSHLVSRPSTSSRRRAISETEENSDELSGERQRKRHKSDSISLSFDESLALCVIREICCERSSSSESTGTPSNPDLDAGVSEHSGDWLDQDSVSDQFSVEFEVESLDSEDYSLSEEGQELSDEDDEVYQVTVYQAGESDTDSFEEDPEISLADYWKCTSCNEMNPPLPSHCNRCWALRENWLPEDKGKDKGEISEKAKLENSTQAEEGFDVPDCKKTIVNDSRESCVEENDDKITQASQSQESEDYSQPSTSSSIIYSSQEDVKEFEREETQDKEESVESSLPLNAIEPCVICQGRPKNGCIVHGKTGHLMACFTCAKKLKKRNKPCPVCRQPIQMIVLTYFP

O=C1CCC(N2Cc3c(NCCOCCOCCOCCNC(=O)c4ccc(NC(=O)[C@@H]5NC6(CCCCC6)[C@@]6(C(=O)Nc7cc(Cl)ccc76)[C@H]5c5cccc(Cl)c5F)cc4)cccc3C2=O)C(=O)N1 (stereo partly drawn) [Cpd. No. 22, (3′R,4'S,5′R)-6″-chloro-4′-(3-chloro-2-fluorophenyl)-N-(4-((2-(2-(2-(2-((2-(2,6-dioxopiperidin-3-yl)-1-oxoisoindolin-4-yl)amino)ethoxy)ethoxy)ethoxy)ethyl)carbamoyl)phenyl)-2″-oxodispiro[cyclohexane-1,2′-pyrrolidine-3′,3″-indoline]-5′-carboxamide]
IC50 ([1]; Homo sapiens, 96 h): 137 nM
HiliSlope [1]: −0.8833
LogIC50 [1]: −0.8628
p53 activation ([2]; MV-4-11 cell line): p53 activation
protein level of MDM2 (MDM2 degradation) ([2]; MV-4-11 cells, 2 hours, compared to Cpd. A): induce MDM2 degradation; also recorded: significantly decreased
MDM2 degradation, dependence on cereblon (CRBN) ([3]; FIG. 7): cereblon (CRBN)-dependent
MDM2 degradation, competition by Cpd. C [3, 11]: significantly competed by Cpd. C
p53 activation, competition by Cpd. C [3, 11]: significantly competed by Cpd. C
mRNA levels of p21 ([4]; FIG. 3): activate
mRNA levels of PUMA ([4]; FIG. 4): activate
mRNA levels of BAX ([4]; FIG. 5): activate
activation of p53 downstream target genes (mRNA levels of p21, PUMA, BAX) ([4]; 3, 6, or 12 hours): Significant activation
p53 activation ([5]; 11 cell line): p53 activation
protein level of MDM2 (MDM2 degradation) ([5]; 11 cells, 2 hours, compared to Cpd. A): induce MDM2 degradation; also recorded: significantly decreased
IC50 ([6]; Homo sapiens, 96 h): 9.45 nM
HiliSlope [6]: −1.567
LogIC50 [6]: −2.025
MDM2 degradation, dependence on proteasome [7]: proteasome-dependent
IC50 [8]: 4.7 nM
IC50 [9]: 2.7 nM
HillSlope ([10]; + 10 uM Cpd. C): −1.701
IC50 ([10]; + 10 uM Cpd. C): 61.7 nM
LogIC50 ([10]; + 10 uM Cpd. C): −1.209
HillSlope ([10]; + 20 uM Cpd. C): −1.530
IC50 ([10]; + 20 uM Cpd. C): 89.6 nM
LogIC50 ([10]; + 20 uM Cpd. C): −1.048
HillSlope ([10]; + 30 uM Cpd. C): −1.341
IC50 ([10]; + 30 uM Cpd. C): 83.2 nM
LogIC50 ([10]; + 30 uM Cpd. C): −1.080
HillSlope ([10]; without Cpd. C): −1.803
LogIC50 ([10]; without Cpd. C): −2.242
IC50 ([10]; Homo sapiens, 96 h, without Cpd. C): 5.73 nM
shift of the dose response curves ([10]; co-treatment of Cpd. C (10, 20, or 30 μM)): Significant rightward shifts
